Like-named read-outs stand apart in the source and are kept apart here.
Experiments:
[1] = Singlet oxygen quantum yield by direct 1O2 phosphorescence at 1270 nm; assay type: physicochemical; conditions: acetonitrile; direct phosphorescence signal of 1O2 at 1270 nm; reference [Ru(phen)3Cl2]
Method: The capacity of complexes IIIa-c to efficiently generate singlet oxygen (^1O2) upon irradiation with light is a key factor in the evaluation of their potential as photosensitising agents for applications in photodynamic therapy. In this connection, the singlet oxygen quantum yields of complexes IIIa-c were determined by means of direct phosphorescence signal of ^1O2 at 1270 nm generated by irradiation of acetonitrile solutions of the complexes and using dichlorotris(1,10-phenanthroline)ruthenium (II) chloride ([Ru(phen)3Cl2]) as a standard reference. A Horiba FluoroMax Plus spectrofluorometer was used for these measurements.

[2] = DHN assay (indirect UV-visible probe for 1O2); assay type: physicochemical; conditions: acetonitrile, LED 400-500 nm; for kobs, rate constant of the DHN photo-oxidation process: [DHN]=330 μM, [Ru]=10 μM; for Φ1O2 (b) singlet oxygen quantum yield: indirect UV-visible measurements with DHN probe, standard [Ru(phen)3]Cl2
Method: A confirmation of the production of singlet oxygen (^1O2) with such a high quantum yields by the three IIIa-c molecular systems was obtained using 1,5-dihydroxynaphthalene (DHN) as an indirect chemical probe for ^1O2 and [Ru(phen)3]Cl2 as a commercial standard. In the DHN assay, the probe is selectively and quantitatively oxidised in the presence of ^1O2 to give the corresponding photo-oxidation product 5-hydroxy-1,4-naphthalenedione (Juglone). The production of ^1O2 was assessed by monitoring the decrease in the DHN absorption band at λ=297 nm and the corresponding increase in the Juglone band at λ=427 nm. […] On this basis, the quantum yield of formation of ^1O2 can be obtained via the equation
where φΔ are the quantum yields of ^1O2 production from the photosensitising agents, k are the rate constants obtained from the DHN assays, labs represents the absolute value for the integration of the absorption of the photosensitising agents in the spectral emission region of the LED lamp (400 nm to 500 nm), and the subscript ST indicates the commercial standard [Ru(phen)3]Cl2.

[3] = test system: Methastatic Lung Adenocarcinoma (Calu-3); test: In-vitro photo-cytotoxicity, MTT assay, Calu-3; assay type: cell-based; conditions: read-out: IC50 (maximum response set to zero)
Method: The activity of compound IIIa as a photosensitising agent in photodynamic therapy was evaluated on two in-vitro tumour models: squamous cell carcinoma of the epidermis (A431) and glioblastoma multiforme (U87MG). Cells cultured on 96-well plates were treated with increasing concentrations of IIIa dispersed in the culture medium for one hour. At the end of the incubation, the medium was replaced, and the cells were exposed to LED light (λmax 462 nm) for 30 minutes, or were left in the dark during the same time. At the end of the 30 minutes, the cells were placed back and maintained in the incubator for 24 hours before measuring the metabolic activity by MTT assay. Six replicates were used for each condition, and cell viability of 100% was calculated from the response of untreated cells not exposed to LED light. […]
The activity of compound IIIc as a photosensitising agent in photodynamic therapy was evaluated on an in-vitro tumour model, Methastatic Lung Adenocarcinoma (Calu-3), following the same protocol as compounds IIIa and IIIb. […]
The activity of compound IIIc encapsulated in cubosomes as a photosensitising agent in photodynamic therapy was evaluated on an in vitro tumour model: Methastatic Lung Adenocarcinoma (Calu-3), following the same protocol as compound IIIa and IIIb. […]

[4] = test system: squamous cell carcinoma of the epidermis (A431); test: In-vitro photo-cytotoxicity, MTT assay, A431; assay type: cell-based; conditions: 1 h incubation, MTT after 24 h, read-out: IC50 (maximum response set to zero)
Method: (§1) The activity of compound IIIa as a photosensitising agent in photodynamic therapy was evaluated on two in-vitro tumour models: squamous cell carcinoma of the epidermis (A431) and glioblastoma multiforme (U87MG). Cells cultured on 96-well plates were treated with increasing concentrations of IIIa dispersed in the culture medium for one hour. At the end of the incubation, the medium was replaced, and the cells were exposed to LED light (λmax 462 nm) for 30 minutes, or were left in the dark during the same time. At the end of the 30 minutes, the cells were placed back and maintained in the incubator for 24 hours before measuring the metabolic activity by MTT assay. Six replicates were used for each condition, and cell viability of 100% was calculated from the response of untreated cells not exposed to LED light. […] The high specificity of IIIa, defined as toxicity only when exposed to light, is evident from the difference in IC50 values, which indicate a potent cytotoxic activity in the presence of light irradiation and substantial inertia in the dark at the concentrations tested, as shown in Table 3.
The activity of compound IIIb as a photosensitising agent in photodynamic therapy was evaluated on an in vitro tumour model, i.e., squamous cell carcinoma of the epidermis (A431), following the same protocol as compound IIIa. […] The high specificity of IIIb, defined as toxicity only when exposed to light, is evident from the difference in IC50 values, which indicate a potent cytotoxic activity in the presence of light irradiation and substantial inertia in the dark at test concentrations, see Table 4.
The activity of compound IIIb encapsulated in cubosomes as a photosensitising agent in photodynamic therapy was evaluated on an in vitro tumour model: squamous cell carcinoma of the epidermis (A431), following the same protocol as compound IIIa and IIIb as such. […] However, the incorporation into a delivery system can bring numerous benefits, including increased distribution in the tumour after in vivo administration, increased stability and solubility, and improved crossing of biological barriers.

[5] = test system: glioblastoma multiforme (U87MG); test: In-vitro photo-cytotoxicity, MTT assay, U87MG; assay type: cell-based; conditions: 1 h incubation, MTT after 24 h, read-out: IC50 (maximum response set to zero)
Method: as §1

[6] = value of the commercial standard used for the calculation; cited from earlier work
[7] = 30′ LED light exposure (λmax 462 nm)

| SMILES | Φ1O2 (a) singlet oxygen quantum yield [1] | kobs, rate constant of the DHN photo-oxidation process [2] | Φ1O2 (b) singlet oxygen quantum yield [2] | IC50 ([3]; 30′ LED light exposure) [nM] | IC50 ([3]; in the dark) [nM] | IC50 [4, 7] [nM] | IC50 ([4]; in the dark) [nM] | IC50 [5, 7] [nM] | IC50 ([5]; in the dark) [nM] | standard quantum yield of 1O2 production [6] |
| --- | --- | --- | --- | --- | --- | --- | --- | --- | --- | --- |
| F[P-](F)(F)(F)(F)F.F[P-](F)(F)(F)(F)F.O=C(c1ccnc(-c2cc(C(=O)N3CCOCC3)ccn2)c1)N1CCOCC1.[Ru+2].c1ccc2cc3nc4c5cccnc5c5ncccc5c4nc3cc2c1.c1ccc2cc3nc4c5cccnc5c5ncccc5c4nc3cc2c1 [Complex IIIc] | 0.54 ± 0.6 | 1.83×10^−3 | 0.42 | 63.9 | > 40000 | – | – | – | – | – |
| O=C([O-])c1ccnc(-c2cc(C(=O)[O-])ccn2)c1.[Ru+2].c1ccc2cc3nc4c5cccnc5c5ncccc5c4nc3cc2c1.c1ccc2cc3nc4c5cccnc5c5ncccc5c4nc3cc2c1 [Complex IIIb, [Ru(4,4′-dicarboxylate-2,2′-bipyridine)(benzo[i]dipyrido[3,2-a:2′,3′-c]phenazine)2]] | 0.50 ± 0.07 | 2.71×10^−3 | 0.47 | – | – | 191 | > 40000 | – | – | – |
| Cc1ccnc(-c2cc(C)ccn2)c1.F[P-](F)(F)(F)(F)F.F[P-](F)(F)(F)(F)F.[Ru+2].c1ccc2cc3nc4c5cccnc5c5ncccc5c4nc3cc2c1.c1ccc2cc3nc4c5cccnc5c5ncccc5c4nc3cc2c1 [Complex IIIa] | 0.54 ± 0.06 | 1.85×10^−3 | 0.44 | – | – | 25.3 | > 40000 | 164 | > 40000 | – |
| [Cl][Ru][Cl].c1cnc2c(c1)ccc1cccnc12.c1cnc2c(c1)ccc1cccnc12.c1cnc2c(c1)ccc1cccnc12 [[Ru(phen)3]Cl2, dichlorotris(1,10-phenanthroline)ruthenium (II) chloride, reference compound] | – | 9.41×10^−4 | – | – | – | – | – | – | – | 0.38 |
